In the supplement of paper PMC10307832:

Assays:
Test in all cases: relative viability (nuclei count vs DMSO), 5 days (fraction); higher = more cells survive
CAL-12T = tested on: CAL-12T
Summary of the method: (§1)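 A single step with final 0.05% Triton X-100, 1% formaldehyde and 1 ug/ml Hoechst fixed the cells and stained nuclei 5 days after treatment. Lung cancer cell lines in 1536-well plates had been treated by pin tool the day after seeding with one drug alone or a fixed anchor-drug dose plus five library-drug doses (not always all listed) in √10 steps, and nuclei were counted on 4× images. Relative viability is the ratio of nuclei in treated wells to nuclei in vehicle wells, taken as the median of duplicate plates.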

COR-L 105 = tested on: COR-L 105
Summary of the method: as §1

EMC-BAC-2 = tested on: EMC-BAC-2
Summary of the method: as §1

H3255 = tested on: H3255
Summary of the method: as §1

LC-2-ad = tested on: LC-2-ad
Summary of the method: as §1

LK-2 = tested on: LK-2
Summary of the method: as §1

NCI-H1395 = tested on: NCI-H1395
Summary of the method: as §1

NCI-H1437 = tested on: NCI-H1437
Summary of the method: as §1

NCI-H1651 = tested on: NCI-H1651
Summary of the method: as §1

NCI-H1755 = tested on: NCI-H1755
Summary of the method: as §1

NCI-H1793 = tested on: NCI-H1793
Summary of the method: as §1

NCI-H1915 = tested on: NCI-H1915
Summary of the method: as §1

NCI-H1944 = tested on: NCI-H1944
Summary of the method: as §1

NCI-H2085 = tested on: NCI-H2085
Summary of the method: as §1

NCI-H2087 = tested on: NCI-H2087
Summary of the method: as §1

NCI-H2228 = tested on: NCI-H2228
Summary of the method: as §1

NCI-H2342 = tested on: NCI-H2342
Summary of the method: as §1

NCI-H2347 = tested on: NCI-H2347
Summary of the method: as §1

NCI-H522 = tested on: NCI-H522
Summary of the method: as §1

NCI-H661 = tested on: NCI-H661
Summary of the method: as §1

PC-3 [JPC-3] = tested on: PC-3 [JPC-3]
Summary of the method: as §1

SK-LU-1 = tested on: SK-LU-1
Summary of the method: as §1

In the case of COCC1(CO)C(=O)C2CCN1CC2 (stereo unspecified) [PRIMA-1MET] + CCNC(=O)c1noc(-c2cc(C(C)C)c(O)cc2O)c1-c1ccc(CN2CCOCC2)cc1 [Luminespib] (partner 0.01 µM), the relative viability (CAL-12T; first compound 0.2 µM) was 0.363, the relative viability (CAL-12T; first compound 0.6325 µM) was 0.383 and the relative viability (CAL-12T; first compound 2 µM) was 0.547. The relative viability (CAL-12T; first compound 6.325 µM) was 0.918, the relative viability (CAL-12T; first compound 20 µM) was 0.166 and the relative viability (COR-L 105; first compound 0.2 µM) was 0.775. It also gave a relative viability (COR-L 105; first compound 0.6325 µM) of 0.687, a relative viability (COR-L 105; first compound 2 µM) of 0.845 and a relative viability (COR-L 105; first compound 6.325 µM) of 0.808. It also gave a relative viability (COR-L 105; first compound 20 µM) of 0.111, a relative viability (EMC-BAC-2; first compound 0.2 µM) of 1.37 and a relative viability (EMC-BAC-2; first compound 0.6325 µM) of 1.12. For the same molecule, the relative viability (EMC-BAC-2; first compound 6.325 µM) was 1.23, the relative viability (EMC-BAC-2; first compound 20 µM) was 0.957 and the relative viability (H3255; first compound 0.2 µM) was 0.933. The relative viability (H3255; first compound 0.6325 µM) was 0.813, the relative viability (H3255; first compound 2 µM) was 0.741 and the relative viability (H3255; first compound 6.325 µM) was 0.868. For the same molecule, the relative viability (H3255; first compound 20 µM) was 0.91, the relative viability (LC-2-ad; first compound 0.2 µM) was 1.26 and the relative viability (LC-2-ad; first compound 2 µM) was 0.902. For the same molecule, the relative viability (LC-2-ad; first compound 6.325 µM) was 1.16, the relative viability (LC-2-ad; first compound 20 µM) was 0.887 and the relative viability (LK-2; first compound 0.2 µM) was 0.152. The relative viability (LK-2; first compound 0.6325 µM) was 0.188, the relative viability (LK-2; first compound 2 µM) was 0.158 and the relative viability (LK-2; first compound 6.325 µM) was 0.167. It also gave a relative viability (LK-2; first compound 20 µM) of 0.121, a relative viability (NCI-H1395; first compound 0.2 µM) of 0.845 and a relative viability (NCI-H1395; first compound 0.6325 µM) of 0.676. The relative viability (NCI-H1395; first compound 2 µM) was 0.677, the relative viability (NCI-H1395; first compound 6.325 µM) was 0.603 and the relative viability (NCI-H1395; first compound 20 µM) was 0.406. For the same molecule, the relative viability (NCI-H1437; first compound 0.2 µM) was 1.18, the relative viability (NCI-H1437; first compound 0.6325 µM) was 1.08 and the relative viability (NCI-H1437; first compound 2 µM) was 1.09. For the same molecule, the relative viability (NCI-H1437; first compound 6.325 µM) was 1.16, the relative viability (NCI-H1437; first compound 20 µM) was 1.01 and the relative viability (NCI-H1651; first compound 0.2 µM) was 0.99. It also gave a relative viability (NCI-H1651; first compound 0.6325 µM) of 0.704, a relative viability (NCI-H1651; first compound 2 µM) of 0.66 and a relative viability (NCI-H1651; first compound 6.325 µM) of 1.06. The relative viability (NCI-H1651; first compound 20 µM) was 0.824, the relative viability (NCI-H1755; first compound 0.2 µM) was 0.527 and the relative viability (NCI-H1755; first compound 0.6325 µM) was 0.332. For the same molecule, the relative viability (NCI-H1755; first compound 2 µM) was 0.404, the relative viability (NCI-H1755; first compound 6.325 µM) was 0.51 and the relative viability (NCI-H1755; first compound 20 µM) was 0.454. The relative viability (NCI-H1793; first compound 0.2 µM) was 0.138, the relative viability (NCI-H1793; first compound 0.6325 µM) was 0.177 and the relative viability (NCI-H1793; first compound 6.325 µM) was 0.195. The relative viability (NCI-H1793; first compound 20 µM) was 0.159, the relative viability (NCI-H1915; first compound 0.2 µM) was 0.868 and the relative viability (NCI-H1915; first compound 0.6325 µM) was 0.506. For the same molecule, the relative viability (NCI-H1915; first compound 6.325 µM) was 0.853, the relative viability (NCI-H1915; first compound 20 µM) was 0.697 and the relative viability (NCI-H1944; first compound 0.2 µM) was 0.671. The relative viability (NCI-H1944; first compound 0.6325 µM) was 0.612, the relative viability (NCI-H1944; first compound 2 µM) was 0.61 and the relative viability (NCI-H1944; first compound 6.325 µM) was 0.685. It also gave a relative viability (NCI-H1944; first compound 20 µM) of 0.724, a relative viability (NCI-H2085; first compound 0.2 µM) of 0.55 and a relative viability (NCI-H2085; first compound 0.6325 µM) of 0.44. The relative viability (NCI-H2085; first compound 2 µM) was 0.3, the relative viability (NCI-H2085; first compound 6.325 µM) was 0.42 and the relative viability (NCI-H2085; first compound 20 µM) was 0.267. For the same molecule, the relative viability (NCI-H2087; first compound 0.2 µM) was 0.167, the relative viability (NCI-H2087; first compound 0.6325 µM) was 0.17 and the relative viability (NCI-H2087; first compound 2 µM) was 0.153. The relative viability (NCI-H2087; first compound 6.325 µM) was 0.181, the relative viability (NCI-H2087; first compound 20 µM) was 0.0951 and the relative viability (NCI-H2228; first compound 0.2 µM) was 0.212. For the same molecule, the relative viability (NCI-H2228; first compound 0.6325 µM) was 0.139, the relative viability (NCI-H2228; first compound 2 µM) was 0.0997 and the relative viability (NCI-H2228; first compound 6.325 µM) was 0.192. The relative viability (NCI-H2228; first compound 20 µM) was 0.056, the relative viability (NCI-H2342; first compound 0.2 µM) was 0.722 and the relative viability (NCI-H2342; first compound 0.6325 µM) was 0.696. It also gave a relative viability (NCI-H2342; first compound 2 µM) of 0.57, a relative viability (NCI-H2342; first compound 6.325 µM) of 0.675 and a relative viability (NCI-H2342; first compound 20 µM) of 0.602. The relative viability (NCI-H2347; first compound 0.2 µM) was 0.262, the relative viability (NCI-H2347; first compound 0.6325 µM) was 0.403 and the relative viability (NCI-H2347; first compound 2 µM) was 0.174. It also gave a relative viability (NCI-H2347; first compound 6.325 µM) of 0.386, a relative viability (NCI-H2347; first compound 20 µM) of 0.349 and a relative viability (NCI-H522; first compound 0.2 µM) of 1.09. For the same molecule, the relative viability (NCI-H522; first compound 0.6325 µM) was 0.899, the relative viability (NCI-H522; first compound 2 µM) was 1.1 and the relative viability (NCI-H522; first compound 6.325 µM) was 0.989. The relative viability (NCI-H522; first compound 20 µM) was 0.838, the relative viability (NCI-H661; first compound 0.2 µM) was 1.02 and the relative viability (NCI-H661; first compound 0.6325 µM) was 0.886. The relative viability (NCI-H661; first compound 2 µM) was 0.965, the relative viability (NCI-H661; first compound 6.325 µM) was 0.929 and the relative viability (NCI-H661; first compound 20 µM) was 0.886. It also gave a relative viability (PC-3 [JPC-3]; first compound 0.2 µM) of 0.849, a relative viability (PC-3 [JPC-3]; first compound 0.6325 µM) of 0.649 and a relative viability (PC-3 [JPC-3]; first compound 2 µM) of 0.679. It also gave a relative viability (PC-3 [JPC-3]; first compound 6.325 µM) of 0.731, a relative viability (PC-3 [JPC-3]; first compound 20 µM) of 0.546 and a relative viability (SK-LU-1; first compound 0.2 µM) of 0.203. For the same molecule, the relative viability (SK-LU-1; first compound 0.6325 µM) was 0.199, the relative viability (SK-LU-1; first compound 2 µM) was 0.199 and the relative viability (SK-LU-1; first compound 6.325 µM) was 0.212. The relative viability (SK-LU-1; first compound 20 µM) was 0.137.
